{"source": "patent US11377473B2", "about": "“Albumin-binding prodrugs of auristatin E derivatives” (priority 2017, dated 2022)", "key": {"albumin in rat plasma": {"target": "T1, albumin in rat plasma (Rattus norvegicus, UniProt P02770)", "T1 construct": "CD1 murine plasma and Sprague Dawley rat plasma were removed from −80° C. storage; from tissue; host or cells: Sprague Dawley rat plasma (frozen, thawed, filtered)", "T1 sequence (P02770 25-608)": "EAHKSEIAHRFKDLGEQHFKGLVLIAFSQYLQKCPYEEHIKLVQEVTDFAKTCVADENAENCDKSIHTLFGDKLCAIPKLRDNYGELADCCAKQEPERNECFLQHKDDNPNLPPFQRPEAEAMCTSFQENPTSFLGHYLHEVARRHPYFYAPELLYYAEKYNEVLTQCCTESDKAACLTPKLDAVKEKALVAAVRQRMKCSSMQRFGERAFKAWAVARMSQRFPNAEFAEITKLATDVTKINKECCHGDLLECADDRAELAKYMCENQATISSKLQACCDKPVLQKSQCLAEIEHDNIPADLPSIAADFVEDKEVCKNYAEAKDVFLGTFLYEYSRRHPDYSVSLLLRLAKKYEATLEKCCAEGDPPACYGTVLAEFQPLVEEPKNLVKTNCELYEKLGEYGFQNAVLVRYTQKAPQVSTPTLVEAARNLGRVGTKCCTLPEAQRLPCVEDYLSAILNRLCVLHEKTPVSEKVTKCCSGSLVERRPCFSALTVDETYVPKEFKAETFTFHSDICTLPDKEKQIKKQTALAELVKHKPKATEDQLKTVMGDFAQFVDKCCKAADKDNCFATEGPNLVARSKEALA", "experiment": "Binding kinetics to albumin in rat plasma", "assay_type": "in vitro ADME, Sprague Dawley rat", "settings": "37° C.", "procedure": "(§1) CD1 murine plasma and Sprague Dawley rat plasma were removed from −80° C. storage and allowed to reach room temperature. The thawed plasma was spun down at 13.6 kRPM for 60 seconds, the supernatant was filtered through a filter needle (5 μm) and subsequently through a 0.45 μm CA membrane.\n(§2) All binding experiments were carried out in triplicate. The plasma was incubated at 37° C. using an Eppendorf Thermomixer C. After 30 minutes incubation 40 μL of the appropriate albumin-binding auristatin-Sulf07 derivative was dissolved in its reconstitution solution and added to the plasma. Samples (40 μL) were taken after 15 seconds, 2 minutes, 4 minutes, 8 minutes and 15 minutes (5 samples).\n(§3) The samples were immediately added to 160 μL of acetonitrile (containing 4 μg/mL of 'MMAE as an internal standard) and vortexed for 1 minute.\n(§4) The solutions were pipetted into an Impact plasma precipitation plate (shaken for 60 seconds) and filtered by vacuum onto a 96 well plate. Remaining drug was determined by LCMS quantification (method 5, 30 μL injection) using MRM MS2 negative mode (multiple reaction monitoring). Parent ions: auristatin F (Mass-744.8), AE-Keto-Sulf07 (Mass-1135.1) and AE-Ester-Sulf07 (Mass-1283.2). Percentage of binding was determined by comparing the AUC for AE-Keto-Sulf07 and AE-Ester-Sulf07 to calibration curves generated by LCMS for each compound."}, "albumin in human plasma": {"target": "T2, albumin in human plasma (Homo sapiens, UniProt P02768)", "T2 construct": "the plasma was separated from the red blood cells by spinning it down for 3 minutes at 3000 RPM; from tissue; host or cells: fresh plasma of a healthy human volunteer", "T2 sequence (P02768 25-609)": "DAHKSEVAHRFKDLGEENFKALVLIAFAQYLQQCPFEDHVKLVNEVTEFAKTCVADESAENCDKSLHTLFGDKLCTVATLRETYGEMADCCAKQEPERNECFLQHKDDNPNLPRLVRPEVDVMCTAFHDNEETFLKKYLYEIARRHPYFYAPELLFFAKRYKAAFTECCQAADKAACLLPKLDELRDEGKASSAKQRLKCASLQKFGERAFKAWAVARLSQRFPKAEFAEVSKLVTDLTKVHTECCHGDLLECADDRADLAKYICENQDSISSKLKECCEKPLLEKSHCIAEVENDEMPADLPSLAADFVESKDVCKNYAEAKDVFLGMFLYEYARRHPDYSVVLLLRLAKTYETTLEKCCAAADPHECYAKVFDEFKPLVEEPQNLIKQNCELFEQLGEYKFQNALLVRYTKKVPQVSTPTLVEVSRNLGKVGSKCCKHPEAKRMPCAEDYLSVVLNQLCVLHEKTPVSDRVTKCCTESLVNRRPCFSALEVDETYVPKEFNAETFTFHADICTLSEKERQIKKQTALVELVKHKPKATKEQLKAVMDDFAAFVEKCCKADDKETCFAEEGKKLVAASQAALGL", "experiment": "Binding kinetics to albumin in human plasma", "assay_type": "in vitro ADME", "settings": "37° C.", "procedure": "Whole blood was taken from a healthy human volunteer (EDTA collection tube), the plasma was separated from the red blood cells by spinning it down for 3 minutes at 3000 RPM. The plasma was then used directly, within 2 hours of the blood donation. 360 μL of the appropriate plasma was used for each binding experiment.\nas §2, §3, §4"}, "[1]": {"system": "malignant melanoma cancer model A375", "experiment": "Human malignant melanoma cancer model A375, large tumors", "assay_type": "in vivo, NMRI nude mice", "procedure": "Feed and water were provided ad libitum. […] Identification used: ear mark and cage labels. […] Tumor volumes were calculated according to the following equation: […]\nThe evaluation of auristatin E and the albumin-binding auristatin E derivative AE-Keto-Sulf07 in a human malignant melanoma cancer model A375 was carried out as described in the general procedure for cell-line-derived xenograft models.\n(§5) Stock solutions were prepared as follows: • 1) 7 mice, 28 g average weight, 310 mm^3 average median tumor volume on day of randomization: 0.3 mg/kg auristatin E TFA salt (AE equiv.) dosed twice weekly for 3 weeks on day 1, 6, 9, 13, 16≡0.35 mg/kg≡7.1 μg/20 g mouse.\nThe evaluation of auristatin E and the albumin-binding auristatin E derivative AE-Ester-Sulf07 in a human malignant melanoma cancer model A375 was carried out as described in the general procedure for cell-line-derived xenograft models.\nas §5, with “Based on the dosing experience in the RXF631 xenograft model, stock” for “Stock”, “16=0.35” for “16≡0.35”"}, "albumin in murine plasma": {"target": "T3, albumin in murine plasma (Mus musculus, UniProt P07724)", "T3 construct": "CD1 murine plasma and Sprague Dawley rat plasma were removed from −80° C. storage; from tissue; host or cells: CD1 murine plasma (frozen, thawed, filtered)", "T3 sequence (P07724 25-608)": "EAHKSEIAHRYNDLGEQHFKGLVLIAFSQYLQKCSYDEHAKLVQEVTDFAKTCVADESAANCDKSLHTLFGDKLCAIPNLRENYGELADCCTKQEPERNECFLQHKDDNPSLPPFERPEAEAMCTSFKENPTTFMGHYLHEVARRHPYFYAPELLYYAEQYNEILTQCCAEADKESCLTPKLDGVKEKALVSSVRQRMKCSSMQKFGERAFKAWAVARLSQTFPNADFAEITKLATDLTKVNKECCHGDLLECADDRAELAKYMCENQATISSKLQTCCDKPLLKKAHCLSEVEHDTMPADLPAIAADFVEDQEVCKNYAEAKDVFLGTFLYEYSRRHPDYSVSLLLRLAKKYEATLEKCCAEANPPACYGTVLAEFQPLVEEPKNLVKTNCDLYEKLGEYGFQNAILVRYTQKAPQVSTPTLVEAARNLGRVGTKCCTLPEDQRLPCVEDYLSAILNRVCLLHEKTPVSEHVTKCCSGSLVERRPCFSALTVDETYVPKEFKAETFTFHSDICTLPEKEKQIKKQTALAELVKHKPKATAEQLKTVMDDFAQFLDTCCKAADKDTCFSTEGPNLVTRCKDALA", "experiment": "Binding kinetics to albumin in murine plasma", "assay_type": "in vitro ADME, CD1 murine", "settings": "37° C.", "procedure": "as §1, §2, §3, §4"}, "[2]": {"system": "NSCLC xenograft model LXFA737", "experiment": "Human non-small cell lung cancer model LXFA737, small tumors", "assay_type": "in vivo, NMRI nude mice", "settings": "for p, antitumor efficacy versus auristatin E: 8 times twice weekly, day 56 and 63", "from_the_text": "Mice were kept under a 14-hour light/10-hour dark, artificial light cycle. The animals were fed with autoclaved Teklad Global 19% Protein Extruded Diet (T.2019S.12) from Envigo RMS SARL and had access to sterile filtered and acidified (pH 2.5) tap water which was changed twice weekly. Feed and water were provided ad libitum. […] Animals were routinely monitored twice daily on working days and daily on Saturdays and Sundays. Starting on day 0, animals were weighed twice a week. Relative body weights (RBW) of individual animals were calculated by dividing the individual absolute body weight on day X (BWx) by the individual body weight on the day of randomization multiplied by 100%. […] Tumor volumes were calculated according to the following equation: […]\nStatistical analysis was only carried out if at least 50% of the initially randomized animals in a relevant group were still alive. Comparisons between test groups were carried out for the same days. By convention, p-values ≤0.05 indicate significance of tumor inhibition. Statistical calculations were performed using GraphPad Prism bioanalytic software (San Diego Calif. USA, www.graphpad.com).\nThe evaluation of auristatin E and the albumin-binding auristatin E derivative AE-Keto-Sulf07 in a human non-small cell lung cancer model LXFA737 was carried out as described in the general procedure for patient-derived xenograft models.\nSample preparation: 38 mg weighed in a 30 mL vial dissolved in 23.8 mL 50/50 tert-butanol/10 mM sodium citrate buffer, 5% sucrose—pH 6; 1.2 mL were aliquoted in 4 mL vials.\nThe evaluation of auristatin E and the albumin-binding auristatin E derivative AE-Ester-Sulf07 in a human non-small cell lung cancer model LXFA737 was carried out as described in the general procedure for patient-derived xenograft models."}, "[3]": {"experiment": "Reconstitution stability (maleimide hydrolysis, loss of API) in reconstitution buffer", "assay_type": "physicochemical", "settings": "for stability of the reconstituted drug (maleimide hydrolysis and loss of API): 50 mM sodium phosphate buffer pH 7.6, 5% sucrose, 2-HPβCD, room temperature, 240 minutes; for maleimide hydrolyzed: after 4 hours incubation at room temperature in reconstitution buffer (50 mM sodium phosphate pH 7.65 containing 4% HPβCD and 5% sucrose)", "procedure": "(§6) The albumin-binding AE-Keto drug derivatives were reconstituted in 50 mM sodium phosphate buffer pH 7.6 which contained 5% sucrose (w/v) and 2% 2-hydroxypropyl-β-cyclodextrin (2-HPβCD). Both drugs were reconstituted at a concentration of 1277 μM (equal to 4.5 mg/kg murine xenograft dose), the dissolution of both drugs was confirmed by HPLC (method 2, 254 nm). Stability of the reconstituted drugs was monitored by HPLC at room temperature every 15 minutes over a period of 240 minutes for maleimide hydrolysis and loss of API.\nas §6, with “AE-Ester” for “AE-Keto drug”, “4% 2-HPβCD.” for “2% 2-hydroxypropyl-β-cyclodextrin (2-HPβCD).”, “655” for “1277”, “2.4” for “4.5”, “310” for “254”"}, "[4]": {"settings": "2.4 mg/kg five times twice weekly"}}, "data": [{"compound": "2-(2-(1-(4-(((1S,2R)-2-((2R,3R)-3-((S)-1-((3R,4R,5S)-4-((S)-2-((R)-2-(dimethylamino)-3-methylbutanamido)-N,3-dimethylbutanamido)-3-methoxy-5-methylheptanoyl)pyrrolidin-2-yl)-3-methoxy-2-methylpropanamido)-1-phenylpropoxy)carbonyl)phenyl)ethylidene)hydrazine-1-carbonyl)-5-(6-(2,5-dioxo-2,5-dihydro-1H-pyrrol-1-yl)hexanamido)benzenesulfonic acid [AE-Ester-Sulf07]", "values": [{"measurement": "albumin binding in plasma", "setting": "albumin in rat plasma", "value": "very rapid"}, {"measurement": "albumin binding in plasma", "setting": "albumin in human plasma", "value": "very rapid"}, {"measurement": "p, antitumor improvement versus auristatin E", "setting": "[1]; 2.4 mg/kg (2% polysorbate 80 or 4% 2-HPßCD) versus auristatin E 0.3 mg/kg, five injections twice weekly, day 9 to 33", "value": "< 0.01"}, {"measurement": "body weight change", "setting": "[1]; [4]", "value": "No significant body weight change compared to the control"}, {"measurement": "side effects", "setting": "[1]; [4]", "value": "wounds due to biting and scratching were observed starting from day 9"}, {"measurement": "tumor response", "setting": "[1]; 2.4 mg/kg five times twice weekly, day 16 until end of study on day 37", "value": "almost complete remission"}, {"measurement": "minimum tumor volume", "setting": "[1]; 2.4 mg/kg reconstituted with 2% polysorbate 80, day 23", "value": 4, "unit": "mm^3"}, {"measurement": "minimum tumor volume", "setting": "[1]; 2.4 mg/kg reconstituted with 4% 2-HPßCD, day 26", "value": 1, "unit": "mm^3"}, {"measurement": "animals lost", "setting": "[1]; 2.4 mg/kg, 2% polysorbate 80 group", "value": "Only one mouse"}, {"measurement": "albumin binding in plasma", "setting": "albumin in murine plasma", "value": "very rapid"}, {"measurement": "animals lost", "setting": "[2]; 2.4 mg/kg 8 times twice weekly", "value": "five mice had to be euthanized due to a combination of body weight loss and skin lesions"}, {"measurement": "tumor response", "setting": "[2]; 2.4 mg/kg 8 times twice weekly, reached on day 21, until end of study on day 74", "value": "complete tumor remission"}, {"measurement": "p, antitumor efficacy versus auristatin E", "setting": "[2]; 2.4 mg/kg versus auristatin E 0.3 mg/kg", "value": "< 0.05"}, {"measurement": "tumor volume", "setting": "[2]; 2.4 mg/kg, until end of study on day 74", "value": "unmeasurable level"}, {"measurement": "stability of the reconstituted drug (maleimide hydrolysis and loss of API)", "setting": "[3]", "value": "more stable than AE-Ester-EMCH"}, {"measurement": "maleimide hydrolyzed", "setting": "[3]", "value": 2.5, "unit": "%"}]}, {"compound": "CC[C@H](C)[C@@H]([C@@H](CC(=O)N1CCC[C@H]1[C@H](OC)[C@@H](C)C(=O)N[C@H](C)[C@@H](O)c1ccccc1)OC)N(C)C(=O)[C@@H](NC(=O)[C@H](C(C)C)N(C)C)C(C)C", "note": "[auristatin E]", "values": [{"measurement": "tumor response", "setting": "[1]; 0.3 mg/kg five times twice weekly, initial, until day 14", "value": "stable disease (stable disease >75-125%)"}, {"measurement": "tumor response", "setting": "[2]; 0.3 mg/kg 8 times twice weekly, temporarily, day 21 to day 42", "value": "stable disease (stable disease >75-125%)"}]}, {"compound": "CC[C@H](C)[C@@H]([C@@H](CC(=O)N1CCC[C@H]1[C@H](OC)[C@@H](C)C(=O)N[C@H](C)C(=NNC(=O)c1ccc(NC(=O)CCCCCN2C(=O)C=CC2=O)cc1S(=O)(=O)O)c1ccccc1)OC)N(C)C(=O)[C@@H](NC(=O)[C@H](C(C)C)N(C)C)C(C)C", "note": "[AE-Keto-Sulf07, 2-(2-((R)-2-((2R,3R)-3-((S)-1-((3R,4S,5S)-4-((S)-2-((S)-2-(dimethylamino)-3-methylbutanamido)-N,3-dimethylbutanamido)-3-methoxy-5-methylheptanoyl)pyrrolidin-2-yl)-3-methoxy-2-methylpropanamido)-1-phenylpropylidene)hydrazine-1-carbonyl)-5-(6-(2,5-dioxo-2,5-dihydro-1H-pyrrol-1-yl)hexanamido)benzenesulfonic acid]", "values": [{"measurement": "albumin binding in plasma", "setting": "albumin in rat plasma", "value": "very rapid"}, {"measurement": "albumin binding in plasma", "setting": "albumin in human plasma", "value": "very rapid"}, {"measurement": "animals lost", "setting": "[1]; 6.5 mg/kg five times twice weekly", "value": "two mice had to be sacrificed for general bad conditions"}, {"measurement": "tumor response", "setting": "[1]; 6.5 mg/kg five times twice weekly, day 19 until end of study on day 37", "value": "complete remission (complete remission <10%)"}, {"measurement": "p, antitumor effect versus auristatin E", "setting": "[1]; 6.5 mg/kg versus auristatin E 0.3 mg/kg, five injections twice weekly, day 9 until day 33", "value": "< 0.01"}, {"measurement": "minimum tumor volume", "setting": "[1]; 6.5 mg/kg, day 28", "value": 1, "unit": "mm^3"}, {"measurement": "tumor volume at the end of the study", "setting": "[1]; 6.5 mg/kg, day 37", "value": "~14", "unit": "mm^3"}, {"measurement": "transient body weight loss", "setting": "[1]; 6.5 mg/kg, reached on day 21", "value": 13, "unit": "%"}, {"measurement": "albumin binding in plasma", "setting": "albumin in murine plasma", "value": "very rapid"}, {"measurement": "tumor response", "setting": "[2]; 4.5 mg/kg 8 times twice weekly, reached on day 28, until end of study on day 74", "value": "complete tumor remission"}, {"measurement": "p, antitumor efficacy versus auristatin E", "setting": "[2]; 4.5 mg/kg (polysorbate 80 and 2-HPßCD buffers) versus auristatin E 0.3 mg/kg", "value": "< 0.01"}, {"measurement": "animals lost", "setting": "[2]; 4.5 mg/kg administered in polysorbate 80", "value": "two mice had to be sacrificed for general bad conditions"}, {"measurement": "maximum body weight loss", "setting": "[2]; 4.5 mg/kg in 2-HPßCD, day 32", "value": "−7", "unit": "%"}, {"measurement": "tumor volume", "setting": "[2]; 4.5 mg/kg, until end of study on day 74, independently of the buffer", "value": "unmeasurable level"}, {"measurement": "stability of the reconstituted drug (maleimide hydrolysis and loss of API)", "setting": "[3]", "value": "more stable than AE-Keto-EMCH"}, {"measurement": "maleimide hydrolyzed", "setting": "[3]", "value": 2.2, "unit": "%"}]}]}
